The values below come from patent US10035814B2, “Guanine analogs as telomerase substrates and telomere length affectors” (Geron Corporation, priority 2011, dated 2018).

For one data set, the target named is telomerase in HT3 cells (Homo sapiens (Human), UniProt O14746). Nature of the data set: Ex vivo TRAP assay in HT3 cells. Format: cell-based. Particulars: for EC50: Table 8, assay not given, repeat determinations, values coincide with Ex Vivo TRAP, read-out: EC50. On the procedure:
HT3 cells were treated for three days with increasing concentrations of PMPG-diisopropyloxy ester ranging from 0.2 μM to 20 μM. Cells (HT3 RPMI+10% PBS) were incubated with compound for 24 hr after which PSTS primer (phosphorothioate-d(AATCCGTCGAGCAGAGTT (SEQ ID NO: 6) containing a 5′ Cy-5 label) (7.5 μM) and fresh compound are added for an additional 24 hr. Cells were lysed and endogenous telomerase inactivated by heating (15 min, 75° C.). Products were amplified by 30 cycles of PCR under TRAP conditions set forth above and quantified. The results of two independent experiments are shown in Table 4.
HT3 cells were treated for three days with increasing concentrations of one or more of the indicated compounds ranging from 0.2 μM to 20 μM. Cells (HT3 RPMI+10% FBS) were incubated with compound for 24 hours, after which PSTS primer (phosphorothioate-d AATCCGTCGAGCAGAGTT (SEQ ID NO: 6) containing a 5′ Cy-5 label) (7.5 μM) and fresh compound were added for an additional 24 hours. Cells were lysed and endogenous telomerase inactivated by heating (15 minutes, 75° C.). Products were amplified by 30 cycles of PCR under TRAP conditions set forth in Kim et al., Science 266:2011, […] (which reference is incorporated herein in its entirety) and quantified.

Another data set relates to A549 cells. Nature of the data set: Telomere repeat fragment (TRF) assay using A549 cells. Format: cell-based. The following applies: approximately 70 population doublings. The method, then: (§1) Approximately 1-2 μg of genomic DNA from each cell line or tissue was digested by Hinf/RsaI for 2 hours at 37° C. Following DNA digestion, the genomic DNA fragments were separated on a 0.8% agarose gel and transferred to a nylon membrane by blotting. All membrane hybridization and detection reagents were provided in the TeloTAGGG Telomere Length Assay kit (Roche Diagnostics, Mannheim Germany). The blotted membranes were hybridized with digoxigenin (DIG)-labeled PNA probe specific for telomeric repeats, followed by incubation with anti-DIG-antibody-alkaline phosphatase according to the manufacturer's instructions. Alkaline phosphatase was quantified using the chemiluminescent substrate. Telomere lengths were calculated according to the manufacturer's instruction.
Lane 1 is a ladder from 21.2 kb to 1.9 kb. Lanes 2 and 3 have 10 μM and 5 μM, respectively, of PMPG free acid (ID#142693). Lanes 4 to 6 have 10 μM, 5 μM, and 2.5 μM, respectively, of PMPG prodrug (ID#142715). Lane 7 has 2 μM of Imetelstat (163 L). Lane 8 has 2 μM of a mismatch. Lanes 9 and 10 have 20 μM and 10 μM, respectively, of PMIBeG free acid [(((2-((2-amino-6-oxo-1H-purin-9(6H)-yl)methyl)allyl)oxy)methyl)phosphonic acid] (ID#142811). Indicated amounts each compound were added to A549 cells. After approximately 70 population doublings, the cells were harvested and telomere lengths determined using TRF. The estimated average telomere lengths were: (1) MM/mismatch control: 7 kb; (2) Imetelstat/163 L: 4.3 kb; (3) PMPG prodrug (10 μM and 5 μM): 4 kb; (4) PMPG free acid (5 μM and 10 μM): 4 kb; (5) PMIBeG prodrug (50 μM): 4.3 kb; (6) PMIBeG free acid (20 μM): 5 kb.

Data set [1] is described as follows: Cytotoxicity in cell culture (cells not named). Format: cell-based.
In the next data set the test system is Caki-1 cells. Nature of the data set: Caki-1 tumor growth in SCID hairless outbred (SHO) mice. Format: in vivo. The following applies: for tumor growth compared to vehicle control: 30 mg/kg intraperitoneal; for Intercept coefficient of linear transformed tumor growth curve / Slope coefficient of linear transformed tumor growth curve: linear mixed effects model, change versus vehicle. The method, then:
Low-passage Caki-1 cells were injected subcutaneously into the flank of SCID hairless outbred (SHO) mice receiving 30 mg/kg of one of the following via intraperitoneal injection: vehicle (PBS with 0.4% Tween 20), Imetelstat (163 L), PMPG free acid (ID#142693), or PMPG prodrug (ID#142715). Calipers were used to measure tumor length and width bi-weekly, and tumor volume was calculated. Once a tumor had grown >50 mm^3, the animal was randomly entered into a study group, either control or treatment. Animals received 30 mg/kg compound via intraperitoneal injection for the duration of the study. The control vehicle was PBS with 0.4% Tween 20. Tumor volume was measured bi-weekly, and animals were sacrificed either when tumor size was >2000 mm^3 or at defined study completion date.
At the conclusion of the study, a linear transformation of the tumor growth curves was performed. The slope of the growth curves for each treatment group was derived by using a linear mixed effects model. The Y-intercept was used to confirm random tumor starting size at the time of animals entering into the study.

For the next data set, the target named is telomerase (Homo sapiens (Human), UniProt O14746). Put plainly: Primer extension assay for telomerase activity. It is filed as biochemical. The following applies: prodrug itself, cell free. On the procedure:
Purified human telomerase was incubated with d(TTAGGG)3 (SEQ ID NO: 1) and deoxy-nucleoside triphosphates for 90 minutes at 37° C. All reactions were done in the presence of 200 dTTP and 10 μM dATP (50,000 cpm/pmol a-^33P-dATP). Activity was determined by incubating affinity purified telomerase extract with 1 μM primer [d(TTAGGG)3] (SEQ ID NO: 1), 200 μM dTTP, 50 μM dGTP, 10 μM dATP, 10 μCi [α-^33P]dATP (2000-4000 Ci/mmol) in a buffer containing 50 mM (N-2-hydroxyethyl piperazine-N′-3 propanesulfonic acid)-NaOH pH 8.5, 1 mM MgCl2, 1 mM DTT, 5% glycerol, 0.5 mM EGTA and 100 mM KOAc in a final reaction volume of 40 μl. Primer extension products were analyzed on a 15% polyacrylamide gel containing 7 M urea. A characteristic telomerase ladder has multiple bands. If a compound is not a substrate then (TTAGGG)3TTA (21 nt) (SEQ ID NO: 2). If a compound is a chain terminator then (TTAGGG)3TTAG* (22 nt) (SEQ ID NO: 3).
Purified human telomerase was incubated with d(TTAGGG)3 (SEQ ID NO: 1) and deoxy-nucleoside triphosphates for 90 minutes at 37° C. All reactions were done in the presence of 200 dTTP and 10 μM dATP (50,000 cpm/pmol a-^33P-dATP). Activity was determined by incubating affinity purified telomerase extract with […] primer [d(TTAGGG)3] (SEQ ID NO: 1), […] [α-^33P]dATP (2000-4000 Ci/mmol) in a buffer containing 50 mM (N-2-hydroxyethyl piperazine-N′-3 propanesulfonic acid)-NaOH pH 8.5, 1 mM MgCl2, 1 mM DTT, 5% glycerol, 0.5 mM EGTA and 100 mM KOAc in a final reaction volume of 40 μl. Primer extension products were analyzed on a 15% polyacrylamide gel containing 7 M urea. A characteristic telomerase ladder has multiple bands. If a compound is not a substrate then (TTAGGG)3TTA (21 nt) (SEQ ID NO: 2). If a compound is a chain terminator then (TTAGGG)3TTAG* (22 nt) (SEQ ID NO: 3).

The next data set has as its system immortal U87 cells. Put plainly: Telomere repeat fragment (TRF) assay using immortal U87 cells. Particulars: concentration not given at the value, approximately 20 population doublings. Format: cell-based. The method, then: as §1
Telomere repeat fragment assays using immortal U87 cells were performed. 10 μM or 20 μM PMIBeG prodrug (ID#142820) or PMPG prodrug (ID#142715) were added to the cells. Imetelstat (163 L) was used as a reference and a mismatch was used as a negative control. After approximately 20 population doublings, the cells were harvested and telomere lengths determined using TRF. The estimated average lengths were: (1) mismatch control: 5 kb; (2) Imetelstat (163 L): 3.5 kb; (3) PMIBeG prodrug (ID#142820) at 20 μM: 4 kb; (4) PMIBeG prodrug (ID#142820) at 10 μM: 4.1 kb; (5) PMPG prodrug (ID#142715): 3.5 kb.

In another data set the test system is RPE-64-tv cells. Nature of the data set: Cytotoxicity in RPE-64-tv cells. It is filed as cell-based.
The mark [2] stands for this setting: Day 10, 30 mg/kg intraperitoneal.
The mark [3] stands for this setting: Day 20, 30 mg/kg intraperitoneal.
Setting [4] is: Day 30, 30 mg/kg intraperitoneal.
[5] abbreviates: Day 40, 30 mg/kg intraperitoneal.
Setting [6] is: Day 50, 30 mg/kg intraperitoneal.
[7] abbreviates: Day 60, 30 mg/kg intraperitoneal.

Values joined by “and” are separate entries in the source; they are usually repeats but may differ in a detail not shown here. Equal values may be shown once.

Sequence of telomerase in HT3 cells (O14746 whole entry): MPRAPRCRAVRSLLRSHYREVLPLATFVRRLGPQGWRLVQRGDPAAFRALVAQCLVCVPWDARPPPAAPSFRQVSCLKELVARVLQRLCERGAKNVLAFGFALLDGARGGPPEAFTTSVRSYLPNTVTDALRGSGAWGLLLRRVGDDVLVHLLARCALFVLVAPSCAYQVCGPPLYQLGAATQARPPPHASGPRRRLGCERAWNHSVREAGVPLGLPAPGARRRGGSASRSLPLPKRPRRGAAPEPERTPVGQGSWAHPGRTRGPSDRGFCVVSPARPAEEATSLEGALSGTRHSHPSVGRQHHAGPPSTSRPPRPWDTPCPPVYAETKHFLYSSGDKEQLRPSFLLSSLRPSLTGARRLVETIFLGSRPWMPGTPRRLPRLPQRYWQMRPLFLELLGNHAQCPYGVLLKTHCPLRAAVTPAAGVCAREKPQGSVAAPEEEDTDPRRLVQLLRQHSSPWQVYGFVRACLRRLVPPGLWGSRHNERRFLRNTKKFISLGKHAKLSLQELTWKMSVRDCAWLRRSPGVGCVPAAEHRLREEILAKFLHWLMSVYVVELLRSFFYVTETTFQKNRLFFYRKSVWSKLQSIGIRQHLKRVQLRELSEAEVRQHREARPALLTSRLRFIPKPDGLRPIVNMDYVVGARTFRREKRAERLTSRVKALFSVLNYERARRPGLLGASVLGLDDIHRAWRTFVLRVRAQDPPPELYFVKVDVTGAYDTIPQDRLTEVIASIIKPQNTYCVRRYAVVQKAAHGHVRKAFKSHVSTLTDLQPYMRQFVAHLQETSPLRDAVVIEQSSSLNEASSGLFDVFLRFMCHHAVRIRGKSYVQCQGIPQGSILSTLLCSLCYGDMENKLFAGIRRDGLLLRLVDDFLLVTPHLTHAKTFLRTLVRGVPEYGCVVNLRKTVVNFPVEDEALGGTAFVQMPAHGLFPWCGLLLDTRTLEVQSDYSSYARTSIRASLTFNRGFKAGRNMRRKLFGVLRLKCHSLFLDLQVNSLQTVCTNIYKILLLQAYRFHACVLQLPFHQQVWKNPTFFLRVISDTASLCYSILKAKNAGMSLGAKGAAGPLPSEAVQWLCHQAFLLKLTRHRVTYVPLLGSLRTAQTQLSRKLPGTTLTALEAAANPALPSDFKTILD
Sequence of telomerase in HT3 cells (O60832 whole entry partner): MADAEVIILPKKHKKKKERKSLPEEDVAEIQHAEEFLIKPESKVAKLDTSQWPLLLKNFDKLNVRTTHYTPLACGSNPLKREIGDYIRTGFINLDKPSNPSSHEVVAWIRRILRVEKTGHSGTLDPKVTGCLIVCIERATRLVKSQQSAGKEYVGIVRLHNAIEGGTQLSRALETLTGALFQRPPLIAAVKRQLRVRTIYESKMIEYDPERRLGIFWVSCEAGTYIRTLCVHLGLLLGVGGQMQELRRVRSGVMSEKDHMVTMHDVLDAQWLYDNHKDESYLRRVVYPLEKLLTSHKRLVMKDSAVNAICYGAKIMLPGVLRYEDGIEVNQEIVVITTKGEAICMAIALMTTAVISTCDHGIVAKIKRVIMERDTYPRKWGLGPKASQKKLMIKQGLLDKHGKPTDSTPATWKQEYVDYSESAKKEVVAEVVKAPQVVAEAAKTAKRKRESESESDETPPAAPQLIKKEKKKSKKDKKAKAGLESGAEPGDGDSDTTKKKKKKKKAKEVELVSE
Sequence of telomerase in HT3 cells (Q9NX24 whole entry partner): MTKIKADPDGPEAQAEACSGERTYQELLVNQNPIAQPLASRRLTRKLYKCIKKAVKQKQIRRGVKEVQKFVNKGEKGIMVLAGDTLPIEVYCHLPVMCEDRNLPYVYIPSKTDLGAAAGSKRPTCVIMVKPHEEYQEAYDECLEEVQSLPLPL
Sequence of telomerase in HT3 cells (Q9NPE3 whole entry partner): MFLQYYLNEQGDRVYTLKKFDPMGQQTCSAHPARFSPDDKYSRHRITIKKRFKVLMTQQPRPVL
Sequence of telomerase in HT3 cells (Q9NY12 whole entry partner): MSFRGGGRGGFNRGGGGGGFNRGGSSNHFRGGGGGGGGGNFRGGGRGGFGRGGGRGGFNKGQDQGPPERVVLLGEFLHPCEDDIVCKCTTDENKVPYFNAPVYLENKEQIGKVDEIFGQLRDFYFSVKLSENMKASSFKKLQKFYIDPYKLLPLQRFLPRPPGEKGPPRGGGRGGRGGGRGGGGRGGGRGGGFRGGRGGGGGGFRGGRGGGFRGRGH
Sequence of telomerase in HT3 cells (Q9BUR4 whole entry partner): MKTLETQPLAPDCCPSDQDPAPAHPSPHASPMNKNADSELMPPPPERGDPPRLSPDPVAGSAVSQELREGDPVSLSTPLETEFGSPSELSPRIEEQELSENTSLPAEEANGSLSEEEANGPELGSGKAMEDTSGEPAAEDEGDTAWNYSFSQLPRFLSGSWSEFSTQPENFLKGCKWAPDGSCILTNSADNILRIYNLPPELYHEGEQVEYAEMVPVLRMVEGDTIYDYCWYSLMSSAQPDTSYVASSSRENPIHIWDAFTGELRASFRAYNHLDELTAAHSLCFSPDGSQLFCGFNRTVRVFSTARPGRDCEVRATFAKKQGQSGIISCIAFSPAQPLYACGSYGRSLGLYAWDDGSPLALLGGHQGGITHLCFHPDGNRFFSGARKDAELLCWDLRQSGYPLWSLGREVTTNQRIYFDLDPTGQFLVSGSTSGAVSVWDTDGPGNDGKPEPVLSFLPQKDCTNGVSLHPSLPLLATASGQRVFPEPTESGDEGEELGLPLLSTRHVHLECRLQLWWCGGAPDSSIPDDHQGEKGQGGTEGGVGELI
Sequence of telomerase (O14746 whole entry): as the sequence (O14746 whole entry) above

As usually defined, the EC50 is the concentration at which the effect is half-maximal. For `CC(Cn1cnc2c(=O)[nH]c(N)nc21)OCP(=O)(O)O` (single isomer, unassigned) [ID#142693, R-(((Guanine-9-yl)propan-2-oxy)methyl) phosphonic acid], the EC50 on telomerase in HT3 cells is 11700 nM and 2500 nM and 1500 nM. The “estimated average telomere length” value in the data set on A549 cells (10 μM and 5 μM) is on record as 4 kb. In addition, the cytotoxicity result in data set [1] (200 uM) was “acutely cytotoxic”; in data set [1] (therapeutic doses (10 μM and 20 μM)) it was “minimal cytotoxicity”. For the same compound, the “tumor growth compared to vehicle control” value in the data set with Caki-1 cells is given as “reduction in tumor growth”. Further, the tumor volume in the data set with Caki-1 cells (setting [2]) is 165.1 mm^3; in the data set on Caki-1 cells (setting [3]), 330.8 mm^3; in the data set with Caki-1 cells (setting [4]) it was 581.3 mm^3; in the data set on Caki-1 cells (setting [5]) it was 934.3 mm^3; in the data set on Caki-1 cells (setting [6]) it was 1407.2 mm^3; with Caki-1 cells (setting [7]) it was 2017.6 mm^3. For the same compound, the “tumor volume as a percentage of the tumor volume of control vehicle mice” value (“tumor volume as a percentage” below) in the data set on Caki-1 cells (setting [2]) stood at 91%; in the data set with Caki-1 cells (setting [3]), 83%; with Caki-1 cells (setting [4]) it was 78%; in the data set with Caki-1 cells (setting [5]), 75%; in the data set with Caki-1 cells (setting [6]), 73%; with Caki-1 cells (setting [7]) it was 71%. Besides, the “Intercept coefficient of linear transformed tumor growth curve” value (“Intercept coefficient” below) in the data set on Caki-1 cells worked out at 0.096. In addition, in the data set with Caki-1 cells, the “Slope coefficient of linear transformed tumor growth curve” value (shortened to “Slope coefficient”) was −0.027.

For `CC(C)OC(=O)OCOP(=O)(COC(C)Cn1cnc2c(=O)[nH]c(N)nc21)OCOC(=O)OC(C)C` (single isomer, unassigned) [ID#142715], the “activity in the cell free telomerase assay” value on telomerase was “inactive”. In addition, the IC50 at telomerase in HT3 cells (HT3 cells, 0.2 μM to 20 μM, two independent experiments, read-out: Ex vivo Assay IC 50) was 1000 to 3000 nM and 1200 to 3200 nM. In addition, the EC50 on telomerase in HT3 cells was 1100 nM and 1200 nM and 3100 nM and 810 nM. Moreover, the “estimated average telomere length” value is reported as 4 kb in the data set on A549 cells (10 μM and 5 μM); 3.5 kb with immortal U87 cells. The tumor volume is on record as 170.7 mm^3 in the data set with Caki-1 cells (setting [2]); 377.5 mm^3 in the data set with Caki-1 cells (setting [3]); 706.6 mm^3 in the data set with Caki-1 cells (setting [4]); 1186.6 mm^3 in the data set on Caki-1 cells (setting [5]); 1845.9 mm^3 in the data set with Caki-1 cells (setting [6]); 2713.0 mm^3 with Caki-1 cells (setting [7]). Besides, the “tumor volume as a percentage” value with Caki-1 cells (setting [2]) was 94%; with Caki-1 cells (setting [3]), 95%; in the data set with Caki-1 cells (setting [4]), 95%; in the data set on Caki-1 cells (setting [5]), 95%; in the data set on Caki-1 cells (setting [6]), 95%; with Caki-1 cells (setting [7]), 96%. Besides, the “Intercept coefficient” value in the data set on Caki-1 cells is reported as −0.093. The “Slope coefficient” value with Caki-1 cells is −0.001.

On to `C=C(COCP(=O)(O)O)Cn1cnc2c(=O)[nH]c(N)nc21` [ID#142811, (((2-((2-amino-6-oxo-1H-purin-9(6H)-yl)methyl)allyl)oxy)methyl)phosphonic acid], for which the “estimated average telomere length” value with A549 cells (20 μM) is reported as 5 kb. The “cytotoxicity compared with PMPG” value in the data set with RPE-64-tv cells is “less cytotoxic than PMPG”. Besides, the “effect on tissue culture” value in the data set on RPE-64-tv cells (200 μM) is recorded as “no effect on tissue culture”.

Take Imetelstat [reference compound]: the “estimated average telomere length” value is given as 4.3 kb in the data set with A549 cells (2 μM) and 3.5 kb in the data set with immortal U87 cells. Also, the “tumor growth compared to vehicle control” value in the data set on Caki-1 cells is on record as “reduction in tumor growth”. Further, the tumor volume came to 146.0 mm^3 in the data set on Caki-1 cells (setting [2]); 293.5 mm^3 with Caki-1 cells (setting [3]); 517.0 mm^3 with Caki-1 cells (setting [4]); 832.2 mm^3 in the data set with Caki-1 cells (setting [5]); 1254.8 mm^3 with Caki-1 cells (setting [6]); 1800.7 mm^3 in the data set with Caki-1 cells (setting [7]). For the same compound, the “tumor volume as a percentage” value in the data set on Caki-1 cells (setting [2]) came out at 81%; in the data set with Caki-1 cells (setting [3]) it was 74%; in the data set on Caki-1 cells (setting [4]), 70%; in the data set on Caki-1 cells (setting [5]), 67%; with Caki-1 cells (setting [6]) it was 65%; with Caki-1 cells (setting [7]) it was 63%. The “Intercept coefficient” value in the data set on Caki-1 cells is recorded as −0.074. The “Slope coefficient” value with Caki-1 cells is −0.032.
